Measured values from patent US11446287B2, “Compounds and methods for EP300 or CBP modulation and indications therefor” (Opna Immuno-Oncology SA, priority 2019, dated 2022).

Biological target: T1, Recombinant human BRD4 containing dual bromodomains (BRD4-BD12 (1-477)) (Homo sapiens, UniProt O60885)
T1 construct: Recombinant human BRD4 containing dual bromodomains (BRD4-BD12 (1-477)); made in house; host or cells: E. coli BL21-CodonPlus (DE3), modified pET vector
Assay: BRD4 Alphascreen binding assay
Procedure, shortened: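 His-tagged human BRD4 tandem bromodomains (1-477, E. coli) incubated 1 h at room temperature with biotinylated tetra-acetylated H4 (1-21) peptide and compound in HEPES pH 7.5 buffer with 2 mM DTT. AlphaScreen signal read 30 min after adding beads (7.5 μg/ml); IC50 from four-parameter fit after normalization to controls.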

| Structure (SMILES) | IC50 |
| --- | --- |
| Cc1noc(C)c1-c1cnc2c(c1)c(-c1ccc(C(=O)O)cc1)cn2C(C)c1ncccn1 (centres unmarked) [P-0013, 4-(5-(3,5-dimethylisoxazol-4-yl)-1-(1-(pyrimidin-2-yl)ethyl)-1H-pyrrolo[2,3-b]pyridin-3-yl)benzoic acid] | 8 to 1000 µM |
| Cc1noc(C)c1-c1cnc2c(c1)c(-c1ccc(C(=O)O)cc1)cn2C(C)c1ccc(F)cn1 (centres unmarked) [P-0014, 4-(5-(3,5-dimethylisoxazol-4-yl)-1-(1-(5-fluoropyridin-2-yl)ethyl)-1H-pyrrolo[2,3-b]pyridin-3-yl)benzoic acid] | 8 to 1000 µM |
| Cc1noc(C)c1-c1cnc2c(c1)c(-c1cccc(C(=O)O)c1)cn2C(c1ccccn1)C1CCCC1 (centres unmarked) [P-0015, 3-(1-(cyclopentyl(pyridin-2-yl)methyl)-5-(3,5-dimethylisoxazol-4-yl)-1H-pyrrolo[2,3-b]pyridin-3-yl)benzoic acid] | 1 to 8 µM |
| Cc1noc(C)c1-c1cnc2c(c1)c(-c1ccc(F)c(C(=O)O)c1)cn2C(c1ccccn1)C1CCCC1 (centres unmarked) [P-0016, 5-(1-(cyclopentyl(pyridin-2-yl)methyl)-5-(3,5-dimethylisoxazol-4-yl)-1H-pyrrolo[2,3-b]pyridin-3-yl)-2-fluorobenzoic acid] | 1 to 8 µM |
| Cc1noc(C)c1-c1cnc2c(c1)c(-c1ccnc(C(=O)O)c1)cn2C(c1ccccn1)C1CCCC1 (centres unmarked) [P-0017, 4-(1-(cyclopentyl(pyridin-2-yl)methyl)-5-(3,5-dimethylisoxazol-4-yl)-1H-pyrrolo[2,3-b]pyridin-3-yl)picolinic acid] | 1 to 8 µM |
| Cc1noc(C)c1-c1cnc2c(c1)c(-c1cccc(CC(=O)O)c1)cn2C(c1ccccn1)C1CCCC1 (centres unmarked) [P-0018, 2-(3-(1-(cyclopentyl(pyridin-2-yl)methyl)-5-(3,5-dimethylisoxazol-4-yl)-1H-pyrrolo[2,3-b]pyridin-3-yl)phenyl)acetic acid] | 1 to 8 µM |
| Cc1noc(C)c1-c1cnc2c(c1)c(-c1ccncc1)cn2C(c1ccccn1)C1CCCC1 (centres unmarked) [P-0019, 4-(1-(cyclopentyl(pyridin-2-yl)methyl)-3-(pyridin-4-yl)-1H-pyrrolo[2,3-b]pyridin-5-yl)-3,5-dimethylisoxazole] | 1 to 8 µM |
| Cc1noc(C)c1-c1cnc2c(c1)c(-c1ccc(C(=O)O)cc1OC1CC1)cn2[C@@H](C)c1ccccn1 [P-0170, (S)-3-cyclopropoxy-4-(5-(3,5-dimethylisoxazol-4-yl)-1-(1-(pyridin-2-yl)ethyl)-1H-pyrrolo[2,3-b]pyridin-3-yl)benzoic acid] | 8 to 1000 µM |
| Cc1noc(C)c1-c1cnc2c(-c3ccc(C(=O)O)cc3C#CC3CC3)cn([C@@H](C)c3ccccn3)c2c1 [P-0171, (S)-3-(cyclopropylethynyl)-4-(6-(3,5-dimethylisoxazol-4-yl)-1-(1-(pyridin-2-yl)ethyl)-1H-pyrrolo[3,2-b]pyridin-3-yl)benzoic acid] | 0.0001 to 1 µM |
| COc1ccc(C(=O)O)cc1-c1cn(C(C)(c2ccccn2)c2ccccn2)c2cc(-c3c(C)noc3C)cnc12 [P-0172, 3-(1-(1,1-di(pyridin-2-yl)ethyl)-6-(3,5-dimethylisoxazol-4-yl)-1H-pyrrolo[3,2-b]pyridin-3-yl)-4-methoxybenzoic acid] | 1 to 8 µM |
| CCOc1cc(C(=O)O)cc(OCC)c1-n1cc(-c2cccnc2)c2ncc(-c3c(C)noc3C)cc21 [P-0173, 4-(6-(3,5-dimethylisoxazol-4-yl)-3-(pyridin-3-yl)-1H-pyrrolo[3,2-b]pyridin-1-yl)-3,5-diethoxybenzoic acid] | 1 to 8 µM |
| CCOc1cc(C(=O)O)cc(OC(C)C)c1-c1cn([C@@H](C)c2ccccn2)c2ncc(-c3c(C)noc3C)cc12 [P-0174, (S)-4-(5-(3,5-dimethylisoxazol-4-yl)-1-(1-(pyridin-2-yl)ethyl)-1H-pyrrolo[2,3-b]pyridin-3-yl)-3-ethoxy-5-isopropoxybenzoic acid] | 8 to 1000 µM |
| Cc1noc(C)c1-c1cnc2c(c1)c(-c1ccc(C(=O)O)cc1OC(F)(F)F)cn2-c1cccnc1 [P-0175, 4-(5-(3,5-dimethylisoxazol-4-yl)-1-(pyridin-3-yl)-1H-pyrrolo[2,3-b]pyridin-3-yl)-3-(trifluoromethoxy)benzoic acid] | 1 to 8 µM |
| COc1ccncc1-n1cc(-c2ccc(C(=O)O)cc2OC(F)(F)F)c2cc(-c3c(C)noc3C)cnc21 [P-0176, 4-(5-(3,5-dimethylisoxazol-4-yl)-1-(4-methoxypyridin-3-yl)-1H-pyrrolo[2,3-b]pyridin-3-yl)-3-(trifluoromethoxy)benzoic acid] | 1 to 8 µM |
| Cc1noc(C)c1-c1cnc2c(c1)c(-c1ccc(C(=O)O)cc1OC(F)(F)F)cn2-c1cnccc1Cl [P-0177, 4-(1-(4-chloropyridin-3-yl)-5-(3,5-dimethylisoxazol-4-yl)-1H-pyrrolo[2,3-b]pyridin-3-yl)-3-(trifluoromethoxy)benzoic acid] | 8 to 1000 µM |
| Cc1noc(C)c1-c1cnc2c(c1)c(-c1ccc(C(=O)O)cc1C#CC1CC1)cn2[C@@H](C)c1ccccn1 [P-0178, (S)-3-(cyclopropylethynyl)-4-(5-(3,5-dimethylisoxazol-4-yl)-1-(1-(pyridin-2-yl)ethyl)-1H-pyrrolo[2,3-b]pyridin-3-yl)benzoic acid] | 8 to 1000 µM |
| Cc1noc(C)c1-c1cnc2c(c1)c(-c1ccc(C(=O)O)cc1OC1CCC1)cn2[C@@H](C)c1ccccn1 [P-0179, (S)-3-cyclobutoxy-4-(5-(3,5-dimethylisoxazol-4-yl)-1-(1-(pyridin-2-yl)ethyl)-1H-pyrrolo[2,3-b]pyridin-3-yl)benzoic acid] | 8 to 1000 µM |
| Cc1noc(C)c1-c1cnc2c(c1)c(-c1ccc(C(=O)O)cc1OC(F)(F)F)cn2-c1ncccc1C(F)(F)F [P-0180, 4-(5-(3,5-dimethylisoxazol-4-yl)-1-(3-(trifluoromethyl)pyridin-2-yl)-1H-pyrrolo[2,3-b]pyridin-3-yl)-3-(trifluoromethoxy)benzoic acid] | 8 to 1000 µM |
| Cc1noc(C)c1-c1cnc2c(c1)c(-c1ccc(C(=O)O)cc1C1CC1)cn2[C@@H](C)c1ccccn1 [P-0181, (S)-3-cyclopropyl-4-(5-(3,5-dimethylisoxazol-4-yl)-1-(1-(pyridin-2-yl)ethyl)-1H-pyrrolo[2,3-b]pyridin-3-yl)benzoic acid] | 8 to 1000 µM |
| Cc1noc(C)c1-c1cnc2c(c1)c(-c1ccc(C(=O)O)cc1OC(F)(F)F)cn2-c1ncccc1F [P-0182, 4-(5-(3,5-dimethylisoxazol-4-yl)-1-(3-fluoropyridin-2-yl)-1H-pyrrolo[2,3-b]pyridin-3-yl)-3-(trifluoromethoxy)benzoic acid] | 1 to 8 µM |
| Cc1noc(C)c1-c1cnc2c(c1)c(-c1ccc(C(=O)O)cc1OC(F)(F)F)cn2-c1ncccc1Cl [P-0183, 4-(1-(3-chloropyridin-2-yl)-5-(3,5-dimethylisoxazol-4-yl)-1H-pyrrolo[2,3-b]pyridin-3-yl)-3-(trifluoromethoxy)benzoic acid] | 8 to 1000 µM |
| CCOc1cc(C(=O)O)cc(OCC)c1-n1cc(-c2ccc(F)cc2)c2ncc(-c3c(C)noc3C)cc21 [P-0184, 4-(6-(3,5-dimethylisoxazol-4-yl)-3-(4-fluorophenyl)-1H-pyrrolo[3,2-b]pyridin-1-yl)-3,5-diethoxybenzoic acid] | 1 to 8 µM |
| CCOc1cc(C(=O)O)cc(OCC)c1-n1cc(-c2cccc(Cl)c2)c2ncc(-c3c(C)noc3C)cc21 [P-0185, 4-(3-(3-chlorophenyl)-6-(3,5-dimethylisoxazol-4-yl)-1H-pyrrolo[3,2-b]pyridin-1-yl)-3,5-diethoxybenzoic acid] | 1 to 8 µM |
